Laboratory results taken from patent publication US8765420B2, “Method for preparing pterocarpan” (priority 2010, dated 2014).

Target: T1, biphenyl dioxygenase of P. pseudoalcaligenes KF707 (SEQ ID NO:3) (Metapseudomonas furukawaii, UniProt Q52028)
T1 construct: expressed in transfected cells; host or cells: Escherichia coli JM109 (pJHF108)
Test: Biotransformation kinetics by whole cells of E. coli expressing biphenyl dioxygenase
Assay type: biochemical, Pseudomonas pseudoalcaligenes strain KF707
Conditions: for Corresponding epoxides produced after 5 h reaction: initial concentration of substrate 250 μM, whole cells of E. coli expressing BDO, 37° C., means of triplicate ± standard errors
Method: E. coli JM109 (pJHF108) was seed cultivated in 50 mL of LB medium containing ampicillin […] at 37° C. for 12 hours. The cultivated seed was inoculated to a 5-L fermentor (BioFlo 3000, Korea fermentor Co., Korea) containing 4.5 L of LB medium and […] of ampicillin, and mixed at 37° C. at 200 rpm for 8 hours. The culture broth was centrifuged at 8,000 g for 10 minutes using VS-21SMT centrifuge (Vision Scientific Co., Bucheon, Korea). Cells were washed three times with 100 mM minimal salt buffer and resuspended in the same buffer, adjusting to the optical density at 600 nm using a UV/visible spectrophotometer (Shimadzu, UV-1601PC, Kyoto, Japan).
Analytical HPLC was carried out using a Varian Prostar HPLC apparatus (Walnut Creek, Calif.) equipped with a photodiode array […] detector. For the analysis of isoflavan-4-ol stereoisomers and their metabolites, a Waters Spherisorb ODS-2 column ([…], 4.6 mm×25 cm, Milford, Mass.) was used. The mobile phase was operated as a linear gradient that made up of water-acetonitrile containing 0.1% formic acid (10% acetonitrile at 0 min, 40% acetonitrile at 15 min, 90% acetonitrile at 25 min, and 90% acetonitrile at 40 min). The flow rate was 1 mL/min and UV detection was performed at 270 nm. For the analysis of enantiomers of cis- and trans-isoflavan-4-ol, a Sumi Chiral OA-7000 column (5 mm, 4.6 mm×25 cm, Sumika Chemical Analysis Service, Ltd., Osaka, Japan) and mobile phase composed of 60:40 (v/v) of 20 mM phosphate buffer (pH 3.0) and acetonitrile were used. The flow rate was 1 mL/min and UV detection was performed at 270 nm.
Biotransformation kinetics by whole cells of E. coli expressing biphenyl dioxygenase was performed as follows. The bacterial culture was prepared as described above, resuspended in 50 mL of phosphate buffer containing 1 mM glucose in a 250 mL flask, and adjusted to a final culture concentration of OD 600 nm=0.6. Then, the bacterial culture was incubated with 250 μM each of four purified isoflavan-4-ol stereoisomers ((3S,4S)- and (3R,4R)-cis-isoflavan-4-ols and (3S,4R)- and (3R,4S)-trans-isoflavan-4-ols) on a rotary shaker (200 rpm) at 37° C. The bacterial cultures (2 mL) were extracted with ethyl acetate, and the solvent was evaporated to dryness as described above. Quantification of metabolites and parent compound by using HPLC with time was monitored in triplicate experiments. Due to the instability of metabolites which were produced from parent compound, the quantity was calculated from the peak area as compared to the standard curve of the parent compound.

T1 sequence (Q52028 whole entry M237T/S238T/M247I/H255Q/V258I/G268A/F277Y/M283S/M285L/D303E/T340I): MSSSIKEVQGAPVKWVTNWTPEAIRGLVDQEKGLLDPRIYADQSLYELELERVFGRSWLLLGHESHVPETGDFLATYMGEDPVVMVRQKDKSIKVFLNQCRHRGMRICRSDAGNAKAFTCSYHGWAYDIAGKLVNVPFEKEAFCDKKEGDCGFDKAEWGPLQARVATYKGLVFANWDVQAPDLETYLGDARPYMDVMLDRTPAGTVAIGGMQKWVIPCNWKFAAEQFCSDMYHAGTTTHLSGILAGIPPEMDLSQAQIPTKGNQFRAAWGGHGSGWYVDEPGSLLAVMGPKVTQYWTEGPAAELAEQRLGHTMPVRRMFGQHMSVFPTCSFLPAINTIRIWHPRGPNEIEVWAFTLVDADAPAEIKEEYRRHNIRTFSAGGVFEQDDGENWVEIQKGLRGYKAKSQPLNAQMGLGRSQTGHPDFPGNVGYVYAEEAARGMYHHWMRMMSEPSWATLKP

Row | Compound | epoxide production relative to that from (3R,4R)-cis-isoflavan-4-ol (after 5 h of reaction) | Corresponding epoxides produced after 5 h reaction | Corresponding epoxides produced after 5 h reaction (listed as Trans-isoflavan-4-ol (3R,4S)) | Corresponding epoxides produced after 5 h reaction (listed as Trans-isoflavan-4-ol (3S,4R))
1 | O[C@@H]1c2ccccc2OC[C@@H]1c1ccccc1 (stereo in doubt) [(3S,4S)-cis-isoflavan-4-ol] | about 4.8 fold | 194.8 ± 5.5 µM |  | 
2 | O[C@H]1c2ccccc2OC[C@H]1c1ccccc1 (stereo in doubt) [(3R,4R)-cis-isoflavan-4-ol] |  | 40 ± 4.0 µM |  | 
3 | O[C@@H]1c2ccccc2OC[C@H]1c1ccccc1 (stereo in doubt) [(3R,4S)-trans-isoflavan-4-ol] |  | 163.3 µM | 163.3 ± 6.8 µM | 
4 | O[C@H]1c2ccccc2OC[C@@H]1c1ccccc1 (stereo in doubt) [(3S,4R)-trans-isoflavan-4-ol] |  | 141.1 µM |  | 141.1 ± 6.2 µM
